Some test systems named below: SF-539 CNS; RXF 393 renal; NCI-H522 lung; NCI/ADR-RES ovarian; BT-549 breast; TK-10 renal; SR leukemia; OVCAR-4 ovarian; HS 578T breast; CAKI-1 renal; LOX IMVI melanoma; MDA-MB-435; MALME-3M melanoma; HL-60(TB) leukemia; SN12C renal; PC-3 prostate; HCT-15 colon; CCRF-CEM leukemia.
What all share (assay): DTP human tumour cell line panel, 48 h

Molecules are shown by their SMILES.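 A five-concentration, 48-hour dose response in 96-well plates underlies each endpoint, interpolated linearly between surrounding concentrations. TGI marks complete inhibition of growth.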 Bounds are passed on as bounds.

As to `CCCCCCCCCCC/C=C(/C(=O)CCCO[Si](C)(C)C(C)(C)C)C(=O)OC`, the TGI in the test on SF-539 CNS, in the test on RXF 393 renal, in the test with NCI-H522 lung, in the test on NCI/ADR-RES ovarian, in the test with BT-549 breast and in the test with TK-10 renal was over 100 µM throughout. In addition, the TGI in the test on SR leukemia, in the test with OVCAR-4 ovarian, in the test with HS 578T breast, with CAKI-1 renal, with LOX IMVI melanoma and with MDA-MB-435 was over 100 µM throughout. Also, the TGI in the test on MALME-3M melanoma, with HL-60(TB) leukemia, with SN12C renal, in the test on PC-3 prostate, in the test on HCT-15 colon and in the test with CCRF-CEM leukemia was over 100 µM each time.

As for `Cc1cc(C)n(-c2nc(-n3nc(C)cc3C)nc(-n3nc(C)cc3C)n2)n1`, the TGI was over 100 µM in the test on SF-539 CNS; over 100 µM in the test with RXF 393 renal; over 100 µM with NCI-H522 lung; over 100 µM in the test on NCI/ADR-RES ovarian; over 100 µM in the test on BT-549 breast; 86.5 µM with TK-10 renal. Also, the TGI with SR leukemia, with OVCAR-4 ovarian, in the test with HS 578T breast, with CAKI-1 renal, in the test with LOX IMVI melanoma and with MDA-MB-435 was over 100 µM throughout. Moreover, the TGI in the test on MALME-3M melanoma, in the test with HL-60(TB) leukemia, in the test on SN12C renal, with PC-3 prostate, in the test on HCT-15 colon and with CCRF-CEM leukemia was over 100 µM each time.

As for `COc1ccc(C2(CC(C)C)CCNC2)cc1OC` (stereo unspecified), the TGI with RXF 393 renal, with NCI-H522 lung, in the test with NCI/ADR-RES ovarian, in the test on BT-549 breast, in the test with TK-10 renal and in the test with SR leukemia was over 100 µM throughout. Moreover, the TGI in the test on OVCAR-4 ovarian, in the test with HS 578T breast, with CAKI-1 renal, in the test with LOX IMVI melanoma, in the test with MDA-MB-435 and in the test with MALME-3M melanoma was over 100 µM throughout. Besides, the TGI with HL-60(TB) leukemia, with SN12C renal, in the test on PC-3 prostate, in the test with HCT-15 colon and with CCRF-CEM leukemia was over 100 µM in each case.

In the case of `Fc1cc2nc3n(c2cc1F)C(c1c(F)cccc1F)SC3` (stereo unspecified), the TGI in the test with SF-539 CNS, with RXF 393 renal, in the test on NCI-H522 lung, in the test on NCI/ADR-RES ovarian, in the test with BT-549 breast and in the test with TK-10 renal was over 100 µM in each case. The TGI in the test with SR leukemia, in the test with OVCAR-4 ovarian, in the test on HS 578T breast, with CAKI-1 renal, in the test with LOX IMVI melanoma and in the test on MDA-MB-435 was over 100 µM in each case. Moreover, the total growth inhibition concentration (TGI) in the test on MALME-3M melanoma is over 100 µM; with HL-60(TB) leukemia, 51.2 µM; in the test with SN12C renal, over 100 µM; in the test on PC-3 prostate, over 100 µM; in the test on HCT-15 colon it was over 100 µM.

In the case of `CCS1=C2C(=O)CC(C)(C)CC2=Nc2ccccc21` (stereo unspecified), the TGI in the test with RXF 393 renal, with NCI-H522 lung, in the test with NCI/ADR-RES ovarian, in the test with BT-549 breast, in the test with TK-10 renal and in the test on SR leukemia was over 100 µM throughout. The TGI with OVCAR-4 ovarian, in the test on HS 578T breast, in the test with CAKI-1 renal, in the test with LOX IMVI melanoma, in the test with MDA-MB-435 and in the test on MALME-3M melanoma was over 100 µM throughout. Moreover, the TGI in the test with HL-60(TB) leukemia, with SN12C renal, in the test on PC-3 prostate, with HCT-15 colon and in the test on CCRF-CEM leukemia was over 100 µM in each case.

On to `N#Cc1ccc(C2ON=C(c3ccccc3)N2C23CC4CC(CC(C4)C2)C3)cc1` (stereo unspecified), for which the TGI in the test with SF-539 CNS, with RXF 393 renal, with NCI-H522 lung, with NCI/ADR-RES ovarian, with BT-549 breast and in the test with TK-10 renal was over 10 µM throughout. In addition, the TGI in the test on SR leukemia, in the test with OVCAR-4 ovarian, in the test with HS 578T breast, with CAKI-1 renal, in the test with LOX IMVI melanoma and in the test on MDA-MB-435 was over 10 µM each time. Further, the TGI in the test with MALME-3M melanoma, in the test with HL-60(TB) leukemia, with SN12C renal, in the test on PC-3 prostate, in the test on HCT-15 colon and in the test on CCRF-CEM leukemia was over 10 µM throughout.

On to `S=C(NCCc1ccccn1)N/N=C(\c1ccccc1)c1ccccn1`, for which the concentration for total growth inhibition (TGI) with SF-539 CNS is 27.1 µM; with RXF 393 renal, 52.8 µM; in the test on NCI-H522 lung, over 100 µM; in the test with NCI/ADR-RES ovarian it was 1.44 µM; in the test with BT-549 breast, 39.3 µM; with TK-10 renal, over 100 µM. Moreover, the TGI in the test with SR leukemia is over 57.7 µM; with OVCAR-4 ovarian, 54.7 µM; in the test on HS 578T breast, over 100 µM; in the test with CAKI-1 renal, over 58.8 µM; in the test with LOX IMVI melanoma, 36.1 µM; with MDA-MB-435, over 100 µM. For the same compound, the concentration for total growth inhibition (TGI) is over 100 µM in the test with MALME-3M melanoma; over 100 µM with HL-60(TB) leukemia; over 67.3 µM in the test on SN12C renal; over 100 µM in the test on PC-3 prostate; over 86.5 µM in the test with HCT-15 colon; over 100 µM in the test on CCRF-CEM leukemia.

As for `O=c1[nH]c2nc3ccccc3c(=O)n2/c1=C/c1ccccc1`, the total growth inhibition concentration (TGI) is 44.9 µM in the test with SF-539 CNS; over 100 µM in the test with RXF 393 renal; over 100 µM with NCI-H522 lung; over 100 µM in the test on NCI/ADR-RES ovarian; 53.8 µM in the test with BT-549 breast; over 100 µM with TK-10 renal. The TGI with SR leukemia was over 100 µM; in the test with OVCAR-4 ovarian, over 100 µM; in the test on HS 578T breast, over 100 µM; with CAKI-1 renal it was over 100 µM; in the test on LOX IMVI melanoma, over 100 µM; with MDA-MB-435 it was 59 µM. The TGI is over 100 µM in the test with MALME-3M melanoma; over 100 µM in the test on HL-60(TB) leukemia; 83.8 µM in the test with SN12C renal; over 100 µM in the test with PC-3 prostate; over 100 µM with HCT-15 colon; over 100 µM in the test on CCRF-CEM leukemia.

Source of the values: PubChem BioAssay (NCI).
